PubChem BioAssay (NCI)
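Assay format: 96-well plates, 48-hour exposure. TGI: total growth inhibition.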

Legend:
Test in all cases: NCI tumour cell line growth inhibition, 48 h
[1] = tested on: MDA-MB-435
[2] = tested on: RXF 393 renal
[3] = tested on: NCI-H460 lung
[4] = tested on: HCT-15 colon
[5] = tested on: HCT-116 colon
[6] = tested on: UACC-62 melanoma
[7] = tested on: SW-620 colon
[8] = tested on: NCI-H226 lung
[9] = tested on: T-47D breast
[10] = tested on: IGROV1 ovarian

CC[C@H](C)C1=C(OC(C)=O)[N@+]2([O-])Oc3ccc(-c4c(OC(C)=O)c(OC(C)=O)c(-c5ccc(OC(C)=O)cc5)c(OC(C)=O)c4OC(C)=O)cc3O[C@]2([C@@H](C)CC)C(=O)N1OC(C)=O
TGI [1]: > 50 µM | TGI [2]: > 50 µM | TGI [3]: > 50 µM | TGI [4]: > 50 µM | TGI [5]: > 50 µM | TGI [6]: 17.7 µM | TGI [7]: > 50 µM | TGI [8]: > 50 µM | TGI [9]: 32 µM | TGI [10]: 27.6 µM

CC(=O)N(CN1C(=O)CCC1C(=O)O)c1ccccc1Cl (stereo not given)
TGI [1]: > 100 µM | TGI [2]: > 100 µM | TGI [3]: > 100 µM | TGI [4]: > 100 µM | TGI [5]: > 100 µM | TGI [6]: > 100 µM | TGI [7]: > 100 µM | TGI [8]: > 100 µM | TGI [9]: > 100 µM | TGI [10]: > 100 µM

COP(C)(=O)C(Cc1c[nH]c2ccccc12)NC(=O)OCc1ccccc1 (stereo not given)
TGI [1]: > 100 µM | TGI [2]: > 100 µM | TGI [3]: > 100 µM | TGI [4]: > 100 µM | TGI [5]: > 100 µM | TGI [6]: > 100 µM | TGI [7]: > 100 µM | TGI [8]: > 100 µM | TGI [9]: > 100 µM | TGI [10]: > 100 µM

NC(N)=NCC(N)C(=O)O (stereo not given)
TGI [1]: > 100 µM | TGI [2]: > 100 µM | TGI [3]: > 100 µM | TGI [4]: > 100 µM | TGI [5]: > 100 µM | TGI [6]: > 100 µM | TGI [7]: > 100 µM | TGI [8]: > 100 µM | TGI [9]: > 100 µM | TGI [10]: > 100 µM

NCCCC[C@H](N)C(=O)Nc1ccc(-c2nc3ccccc3s2)cc1Cl
TGI [1]: 9.58 µM | TGI [2]: 27.3 µM | TGI [3]: 13.7 µM | TGI [4]: 20.5 µM | TGI [5]: 1.93 µM | TGI [6]: 28.5 µM | TGI [7]: 23.6 µM | TGI [8]: 4.62 µM | TGI [9]: 19.4 µM | TGI [10]: 22.7 µM

CC1(C)CC[C@]2(C(=O)O)[C@H](O)C[C@]3(C)C(=CC[C@@H]4[C@@]5(C)CC[C@H](OC6OC(C(=O)O)C(O)C(O)C6O)C(C)(C)[C@@H]5CC[C@]43C)[C@@H]2C1 (stereo not given in full)
TGI [1]: > 100 µM | TGI [2]: 81.6 µM | TGI [3]: > 100 µM | TGI [4]: > 100 µM | TGI [5]: > 100 µM | TGI [6]: 61.9 µM | TGI [7]: > 100 µM | TGI [8]: > 100 µM | TGI [9]: > 100 µM | TGI [10]: > 100 µM

CN1B(c2ccccc2)N(C)C(=O)N(C)C1=O
TGI [1]: > 100 µM | TGI [2]: > 100 µM | TGI [3]: > 100 µM | TGI [4]: > 100 µM | TGI [5]: > 100 µM | TGI [6]: > 100 µM | TGI [7]: > 100 µM | TGI [8]: > 100 µM | TGI [9]: > 100 µM | TGI [10]: > 100 µM

C=CCC(CNC(=O)OCc1ccccc1)OC(=O)OCc1ccccc1 (stereo not given)
TGI [1]: > 100 µM | TGI [2]: > 100 µM | TGI [3]: > 100 µM | TGI [4]: > 100 µM | TGI [5]: > 100 µM | TGI [6]: > 100 µM | TGI [7]: > 100 µM | TGI [8]: > 100 µM | TGI [9]: > 100 µM | TGI [10]: > 100 µM

CC(/C=N/NC1=NCCCN1)=N\NC1=NCCCN1
TGI [1]: > 100 µM | TGI [2]: > 100 µM | TGI [3]: > 100 µM | TGI [4]: > 100 µM | TGI [5]: > 100 µM | TGI [6]: > 100 µM | TGI [7]: > 100 µM | TGI [8]: > 100 µM | TGI [9]: > 100 µM | TGI [10]: > 100 µM

CC(=O)OCC1OC(N2C(S)=C(C#N)C(c3ccco3)C(C(C)=O)=C2c2ccccc2)C(OC(C)=O)C(OC(C)=O)C1OC(C)=O (stereo not given)
TGI [1]: > 100 µM | TGI [2]: > 100 µM | TGI [3]: > 100 µM | TGI [4]: > 100 µM | TGI [5]: > 100 µM | TGI [6]: > 100 µM | TGI [7]: > 100 µM | TGI [8]: > 100 µM | TGI [9]: > 100 µM | TGI [10]: > 100 µM

CCOP(=O)(OCC)C(C)(C)OC(=O)NC#N
TGI [1]: > 100 µM | TGI [2]: > 100 µM | TGI [3]: > 100 µM | TGI [4]: > 100 µM | TGI [5]: > 100 µM | TGI [6]: > 100 µM | TGI [7]: > 100 µM | TGI [8]: > 100 µM | TGI [9]: > 100 µM | TGI [10]: > 100 µM

O=C(O)CC(O)(C(=O)O)C(O)C(=O)O (stereo not given)
TGI [1]: > 1000 µM | TGI [2]: > 1000 µM | TGI [3]: > 1000 µM | TGI [4]: > 1000 µM | TGI [5]: > 1000 µM | TGI [6]: > 1000 µM | TGI [7]: > 1000 µM | TGI [8]: > 1000 µM | TGI [9]: > 1000 µM | TGI [10]: > 1000 µM

CCCCCCCCCCCCCCCCP(=O)([O-])OCC[N+](C)(C)C
TGI [1]: 34.2 µM | TGI [2]: 15 µM | TGI [3]: 18.8 µM | TGI [4]: 16.7 µM | TGI [5]: 28 µM | TGI [6]: 29.3 µM | TGI [7]: 29.7 µM | TGI [8]: 40.9 µM | TGI [9]: 35.5 µM | TGI [10]: 7.2 µM

O=C(Oc1cccc(Cl)c1)c1cc2cc(CCl)ccc2oc1=O
TGI [1]: > 100 µM | TGI [2]: 62.7 µM | TGI [3]: > 100 µM | TGI [4]: > 100 µM | TGI [5]: > 100 µM | TGI [6]: 28.2 µM | TGI [7]: > 100 µM | TGI [8]: > 100 µM | TGI [9]: > 100 µM | TGI [10]: > 100 µM

COC(=O)C(Cc1nc2ccccc2[nH]c1=O)C(=O)C(=O)Nc1cc(C(F)(F)F)ccc1Cl (stereo not given)
TGI [1]: > 100 µM | TGI [2]: 46.3 µM | TGI [3]: 39.9 µM | TGI [4]: 26.7 µM | TGI [5]: 32.1 µM | TGI [6]: 53.4 µM | TGI [7]: > 100 µM | TGI [8]: 35.1 µM | TGI [9]: 44.7 µM | TGI [10]: 25.3 µM

C=CCN1CCC2(CC1)NC(=O)c1ccccc1O2
TGI [1]: > 100 µM | TGI [2]: > 100 µM | TGI [3]: > 100 µM | TGI [4]: > 100 µM | TGI [5]: > 100 µM | TGI [6]: > 100 µM | TGI [7]: > 100 µM | TGI [8]: > 100 µM | TGI [9]: > 100 µM | TGI [10]: > 100 µM

OC(c1ccccc1)(c1cccnc1)C(O)(c1ccccc1)c1cccnc1 (stereo not given)
TGI [1]: > 100 µM | TGI [2]: > 100 µM | TGI [3]: > 100 µM | TGI [4]: > 100 µM | TGI [5]: > 100 µM | TGI [6]: > 100 µM | TGI [7]: > 100 µM | TGI [8]: > 100 µM | TGI [9]: > 100 µM | TGI [10]: > 100 µM

CCOP(=O)(OCC)C(Nc1ccc(F)cc1)c1ccccc1 (stereo not given)
TGI [1]: > 100 µM | TGI [2]: > 100 µM | TGI [3]: > 100 µM | TGI [4]: > 100 µM | TGI [5]: > 100 µM | TGI [6]: > 100 µM | TGI [7]: > 100 µM | TGI [8]: > 100 µM | TGI [9]: > 100 µM | TGI [10]: > 100 µM

O=C1OC(=O)C2C1C(c1ccccc1[N+](=O)[O-])C=C(c1ccco1)N2c1ccncc1 (stereo not given)
TGI [1]: 52.6 µM | TGI [2]: 19.1 µM | TGI [3]: 31.9 µM | TGI [4]: 12.8 µM | TGI [5]: 3.31 µM | TGI [6]: 36.4 µM | TGI [7]: 15 µM | TGI [8]: > 39.2 µM | TGI [9]: 14 µM | TGI [10]: 5.3 µM

CN(C)CCNc1nc2c(no[n+]2[O-])c2ccccc12
TGI [1]: 35.2 µM | TGI [2]: 38.6 µM | TGI [3]: > 100 µM | TGI [4]: 57.4 µM | TGI [5]: 52.9 µM | TGI [6]: 41.4 µM | TGI [7]: 46 µM | TGI [8]: 54.9 µM | TGI [9]: > 100 µM | TGI [10]: 53 µM
